The source of these data is patent publication US8722687B2, “Imidazo [1,2-A]pyridine derivatives as FGFR kinase inhibitors for use in therapy” (Astex Therapeutics Ltd, priority 2009, dated 2014).

The target of assay [1] is T1, Ba/F3-Flt3 cells (Homo sapiens, UniProt P36888, cells depend on it, form not given).
T1 construct: Ba/F3-flt3 − IL3 pIC50; other: without IL3
T1 sequence (P36888 1-993): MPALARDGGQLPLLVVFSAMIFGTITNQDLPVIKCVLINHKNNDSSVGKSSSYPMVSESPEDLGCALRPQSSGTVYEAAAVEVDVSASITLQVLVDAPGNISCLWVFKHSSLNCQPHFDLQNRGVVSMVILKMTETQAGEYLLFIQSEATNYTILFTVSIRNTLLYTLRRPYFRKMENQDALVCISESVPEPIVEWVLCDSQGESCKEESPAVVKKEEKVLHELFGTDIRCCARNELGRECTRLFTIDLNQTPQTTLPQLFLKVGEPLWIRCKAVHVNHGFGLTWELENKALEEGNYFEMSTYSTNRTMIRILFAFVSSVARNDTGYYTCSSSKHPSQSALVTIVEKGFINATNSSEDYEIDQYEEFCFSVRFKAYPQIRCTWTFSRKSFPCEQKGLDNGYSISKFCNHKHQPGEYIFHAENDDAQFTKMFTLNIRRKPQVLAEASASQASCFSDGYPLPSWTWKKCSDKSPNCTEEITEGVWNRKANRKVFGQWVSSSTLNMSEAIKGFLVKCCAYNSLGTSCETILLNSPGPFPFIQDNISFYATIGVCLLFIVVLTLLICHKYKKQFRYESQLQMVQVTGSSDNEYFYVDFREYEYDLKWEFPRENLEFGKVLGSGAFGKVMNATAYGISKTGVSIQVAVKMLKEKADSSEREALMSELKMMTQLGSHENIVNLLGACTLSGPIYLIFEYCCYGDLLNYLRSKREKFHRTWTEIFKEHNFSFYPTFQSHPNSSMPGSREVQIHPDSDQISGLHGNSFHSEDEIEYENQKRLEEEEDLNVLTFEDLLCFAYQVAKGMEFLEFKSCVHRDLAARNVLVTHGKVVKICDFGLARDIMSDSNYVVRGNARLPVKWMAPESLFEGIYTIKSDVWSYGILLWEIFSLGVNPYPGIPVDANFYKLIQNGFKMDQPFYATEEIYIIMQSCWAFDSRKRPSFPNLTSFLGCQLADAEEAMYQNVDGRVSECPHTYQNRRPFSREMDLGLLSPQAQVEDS
Kind of assay: Ba/F3-Flt3 assay (Alamar Blue). Format: cell-based, murine. To be noted: without IL3. From the text: (§1) Ba/F3, a murine interleukin-3 dependent pro-B cell line is increasingly popular as a model system for assessing both the potency and downstream signaling of kinase oncogenes, and the ability of small-molecule kinase inhibitors to block kinase activity. Facilitated by their growth properties. Ba/F3 cells have recently been adapted to high throughput assay formats for compound profiling. Further, several published approaches show promise in predicting resistance to small-molecule kinase inhibitors elicited by point mutations interfering with inhibitor binding (Ba/F3 cells and their use in kinase drug discovery; Markus Warmuth, Sungjoon Kim, Xiang-ju Gu, Gang Xia and Francisco Adria'n; Curr Opin Oncol 19:55-60).
(§2) Ba/F3-Flt3 cells (cultured in phenol red free RPMI-1640, 10% A FCS and 50 μg/ml Gentamycin at 37° C. and 5% 002) were plated at a density of 10000 cells in a total volume of 180 μl medium in a black TC-treated sterile 96-well plate (Corning). After 24 hours, drugs in different dilutions were added to a final volume of 200 μl and at a final DMSO concentration of 0.2% prior to incubation at 37° C., and 5% CO2.
(§3) After 24 h, to each well 40 μl Alamar Blue solution (Aldrich) was added and the cells were further incubated for 4 hours at 37° C. Fluorescence (ex. 544, em. 590 nm) was measured using a fluorescence reader (Labsystems) and IC50's were calculated.
(§4) In the condition containing IL3, 10 ng/ml of murine IL3 (PeproTech) was added during compound incubation.

For assay [2], the system named is Ba/F3-Flt3 cells. Briefly: Ba/F3-Flt3 assay (Alamar Blue). The format is cell-based, murine. To be noted: Mus musculus, 24 h; with 10 ng/ml murine IL3; read-out: Ba/F3-flt3 + IL3 pIC50 (converted).
Text: as §1, §2, §3, §4
A general note: Resazurin is reduced to fluorescent resorufin, in cell work by metabolically active cells.

Consider `CCNC(=O)Nc1cc(OC(C)C)cc(-c2cnc3cc(-c4nncs4)ccn23)c1` [Compound F-10, 1-Ethyl-3-[3-isopropoxy-5-(7-[1,3,4]thiadiazol-2-yl-imidazo[1,2-a]pyridin-3-yl)-phenyl]-urea], for which the “Ba/F3-flt3 − IL3 pIC50” value on Ba/F3-Flt3 cells [1] is on record as 5.04. For the same compound, the IC50 in the assay on Ba/F3-Flt3 cells [2] was more than 10 µM.

Turning to `CC(C)Oc1cc(NC(=O)NCC(F)(F)F)cc(-c2cnc3cc(C(=O)C4CC4)ccn23)c1` [Compound F-6, 1-[3-(7-Cyclopropanecarbonyl-imidazo[1,2-a]pyridin-3-yl)-5-isopropoxy-phenyl]-3-(2,2,2-trifluoro-ethyl)-urea], the “Ba/F3-flt3 − IL3 pIC50” value at Ba/F3-Flt3 cells [1] was less than 5. In addition, the IC50 in the assay on Ba/F3-Flt3 cells [2] was more than 10 µM.

Turning to `CC(C)Oc1cc(NC(=O)NCC(F)(F)F)cc(-c2cnc3cc(-c4ccnc(C(F)(F)F)n4)ccn23)c1` [Compound F-8, 1-{3-Isopropoxy-5-[7-(2-trifluoromethyl-pyrimidin-4-yl)-imidazo[1,2-a]pyridin-3-yl]-phenyl}-3-(2,2,2-trifluoro-ethyl)-urea], the “Ba/F3-flt3 − IL3 pIC50” value on Ba/F3-Flt3 cells [1] is on record as less than 5. For the same compound, the IC50 in the assay on Ba/F3-Flt3 cells [2] is more than 10 µM.

With `CCOc1cc(NC(=O)NCC(F)(F)F)cc(-c2cnc3cc(-c4ccnc(C(F)(F)F)n4)ccn23)c1` [Compound F-16, 1-{3-Ethoxy-5-[7-(2-trifluoromethyl-pyrimidin-4-yl)-imidazo[1,2-a]pyridin-3-yl]-phenyl}-3-(2,2,2-trifluoro-ethyl)-urea], on Ba/F3-Flt3 cells [1], the “Ba/F3-flt3 − IL3 pIC50” value is less than 5. For the same compound, in the assay on Ba/F3-Flt3 cells [2], the IC50 is more than 10 µM.

`CC(C)Oc1cc(NC(=O)NCC(F)(F)F)cc(-c2cnc3cc(-c4nncs4)ccn23)c1.Cl` [Compound F-19, 1-[3-Isopropoxy-5-(7-[1,3,4]thiadiazol-2-yl-imidazo[1,2-a]pyridin-3-yl)-phenyl]-3-(2,2,2-trifluoro-ethyl)-urea]: the “Ba/F3-flt3 − IL3 pIC50” value on Ba/F3-Flt3 cells [1] is reported as less than 5. Also, the IC50 in the assay with Ba/F3-Flt3 cells [2] was more than 10 µM.

Turning to `Cc1nnc(-c2ccn3c(-c4cc(NC(=O)NCC(F)(F)F)cc(OC(C)C)c4)cnc3c2)o1` [Compound F-5, 1-{3-Isopropoxy-5-[7-(5-methyl-[1,3,4]oxadiazol-2-yl)-imidazo[1,2-a]pyridin-3-yl]-phenyl}-3-(2,2,2-trifluoro-ethyl)-urea], at Ba/F3-Flt3 cells [1], the “Ba/F3-flt3 − IL3 pIC50” value was less than 5. The IC50 in the assay with Ba/F3-Flt3 cells [2] is more than 10 µM.

Take `COCc1cc(NC(=O)NCC(F)(F)F)cc(-c2cnc3cc(-c4nnc(C)o4)ccn23)c1` [Compound F-7, 1-{3-Methoxymethyl-5-[7-(5-methyl-[1,3,4]oxadiazol-2-yl)-imidazo[1,2-a]pyridin-3-yl]-phenyl}-3-(2,2,2-trifluoro-ethyl)-urea]: at Ba/F3-Flt3 cells [1], the “Ba/F3-flt3 − IL3 pIC50” value is listed as less than 5. Also, the IC50 in the assay on Ba/F3-Flt3 cells [2] was more than 10 µM.

With `Cc1nnc(-c2ccn3c(-c4cc(NC(=O)NCC(F)(F)F)cc(OC5CCC5)c4)cnc3c2)o1` [Compound F-11, 1-{3-Cyclobutoxy-5-[7-(5-methyl-[1,3,4]oxadiazol-2-yl)-imidazo[1,2-a]pyridin-3-yl]-phenyl}-3-(2,2,2-trifluoro-ethyl)-urea], at Ba/F3-Flt3 cells [1], the “Ba/F3-flt3 − IL3 pIC50” value is given as less than 5. For the same compound, the IC50 in the assay with Ba/F3-Flt3 cells [2] was more than 10 µM.

For `CCNC(=O)Nc1cc(OC(C)C)cc(-c2cnc3cc(-c4nnc(C)s4)ccn23)c1` [Compound F-23, 1-Ethyl-3-{3-isopropoxy-5-[7-(5-methyl-[1,3,4]thiadiazol-2-yl)-imidazo[1,2-a]pyridin-3-yl]-phenyl}-urea], the “Ba/F3-flt3 − IL3 pIC50” value on Ba/F3-Flt3 cells [1] was less than 5. Also, in the assay with Ba/F3-Flt3 cells [2], the IC50 was more than 10 µM.

`CC(C)Oc1cc(NC(=O)NCC(F)(F)F)cc(-c2cnc3cc(-c4nccc(C(C)C)n4)ccn23)c1` [Compound F-29, 1-{3-Isopropoxy-5-[7-(4-isopropyl-pyrimidin-2-yl)-imidazo[1,2-a]pyridin-3-yl]-phenyl}-3-(2,2,2-trifluoroethyl)-urea]: at Ba/F3-Flt3 cells [1], the “Ba/F3-flt3 − IL3 pIC50” value is given as less than 5. In the assay on Ba/F3-Flt3 cells [2], the IC50 was more than 10 µM.

As for `Cc1nnc(-c2ccn3c(-c4cc(NC(=O)NCC(F)(F)F)cc(OC(C)C)c4)cnc3c2)s1.Cl` [Compound F-20, 1-{3-Isopropoxy-5-[7-(5-methyl-[1,3,4]thiadiazol-2-yl)-imidazo[1,2-a]pyridin-3-yl]-phenyl}-3-(2,2,2-trifluoro-ethyl)-urea], the “Ba/F3-flt3 − IL3 pIC50” value at Ba/F3-Flt3 cells [1] is reported as less than 5. In addition, the IC50 with Ba/F3-Flt3 cells [2] is more than 10 µM.

`CC(C)Oc1cc(NC(=O)NCC(F)(F)F)cc(-c2cnc3cc(-c4ncc(F)c(N)n4)ccn23)c1` [Compound F-1, 1-{3-[7-(4-Amino-5-fluoro-pyrimidin-2-yl)-imidazo[1,2-a]pyridin-3-yl]-5-isopropoxy-phenyl}-3-(2,2,2-trifluoro-ethyl)-urea]: the “Ba/F3-flt3 − IL3 pIC50” value on Ba/F3-Flt3 cells [1] was less than 5. In addition, the IC50 in the assay with Ba/F3-Flt3 cells [2] was more than 10 µM.

As to `COCc1cc(NC(=O)NCC(F)(F)F)cc(-c2cnc3cc(-c4ccnc(C(F)(F)F)n4)ccn23)c1` [Compound F-9, 1-{3-Methoxymethyl-5-[7-(2-trifluormethyl-pyrimidin-4-yl)-imidazo[1,2-a]pyridin-3-yl]-phenyl}-3-(2,2,2-trifluoro-ethyl)-urea], at Ba/F3-Flt3 cells [1], the “Ba/F3-flt3 − IL3 pIC50” value was less than 5. Besides, the IC50 in the assay on Ba/F3-Flt3 cells [2] is more than 10 µM.

As for `Cc1nc(N)cc(-c2ccn3c(-c4cc(NC(=O)NCC(F)(F)F)cc(OC(C)C)c4)cnc3c2)n1` [Compound F-4, 1-{3-[7-(6-Amino-2-methyl-pyrimidin-4-yl)-imidazo[1,2-a]pyridin-3-yl]-5-isopropoxy-phenyl}-3-(2,2,2-trifluoro-ethyl)-urea], on Ba/F3-Flt3 cells [1], the “Ba/F3-flt3 − IL3 pIC50” value is given as less than 5. Moreover, in the assay on Ba/F3-Flt3 cells [2], the IC50 was more than 10 µM.

With `CC(C)Oc1cc(NC(=O)NCC(F)(F)F)cc(-c2cnc3cc(OCCCO)ccn23)c1` [Compound F-18, 1-{3-[7-(3-Hydroxy-propoxy)-imidazo[1,2-a]pyridin-3-yl]-5-isopropoxy-phenyl}-3-(2,2,2-trifluoro-ethyl)-urea], on Ba/F3-Flt3 cells [1], the “Ba/F3-flt3 − IL3 pIC50” value is less than 5. Besides, in the assay with Ba/F3-Flt3 cells [2], the IC50 is more than 10 µM.

As for `CCOc1cc(NC(=O)NCC(F)(F)F)cc(-c2cnc3cc(-c4nnc(C)o4)ccn23)c1` [Compound F-15, 1-{3-Ethoxy-5-[7-(5-methyl-[1,3,4]oxadiazol-2-yl)-imidazo[1,2-a]pyridin-3-yl]-phenyl}-3-(2,2,2-trifluoro-ethyl)-urea], the “Ba/F3-flt3 − IL3 pIC50” value on Ba/F3-Flt3 cells [1] is less than 5. Besides, the IC50 with Ba/F3-Flt3 cells [2] is more than 10 µM.

For the compound `Cc1nc(-c2ccn3c(-c4cc(NC(=O)NCC(F)(F)F)cc(OC(C)C)c4)cnc3c2)ccc1F` [Compound F-3, 1-{3-[7-(5-Fluoro-6-methyl-pyridin-2-yl)-imidazo[1,2-a]pyridin-3-yl]-5-isopropoxy-phenyl}-3-(2,2,2-trifluoro-ethyl)-urea], the “Ba/F3-flt3 − IL3 pIC50” value on Ba/F3-Flt3 cells [1] was less than 5. The IC50 in the assay on Ba/F3-Flt3 cells [2] is more than 10 µM.

Take `CC(C)Oc1cc(NC(=O)NCC(F)(F)F)cc(-c2cnc3cc(-c4nccc(C(C)(C)CO)n4)ccn23)c1` [Compound F-27, 1-(3-{7-[4-(2-Hydroxy-1,1-dimethylethyl)-pyrimidin-2-yl]-imidazo[1,2-a]pyridin-3-yl}-5-isopropoxy-phenyl)-3-(2,2,2-trifluoro-ethyl)-urea]: the “Ba/F3-flt3 − IL3 pIC50” value on Ba/F3-Flt3 cells [1] is less than 5. Also, the IC50 with Ba/F3-Flt3 cells [2] is more than 10 µM.

`CC(C)Oc1cc(NC(=O)NCC(F)(F)F)cc(-c2cnc3cc(N4CCC(F)(F)CC4)ccn23)c1` [Compound F-13, 1-{3-[7-(4,4-Difluoro-piperidin-1-yl)-imidazo[1,2-a]pyridin-3-yl]-5-isopropoxy-phenyl}-3-(2,2,2-trifluoro-ethyl)-urea]: at Ba/F3-Flt3 cells [1], the “Ba/F3-flt3 − IL3 pIC50” value was less than 5. The IC50 in the assay on Ba/F3-Flt3 cells [2] was more than 10 µM.
